Measurements from article PMC10611374, “Characterization of the Hemolytic Activity of Mastoparan Family Peptides from Wasp Venoms” (Toxins, 2023).
Where “and” joins values, the source holds several entries; their conditions need not be identical. Equal values may be shown once. Read-outs that look alike come from different tables or passages of the source. Ends that are not written are not given here.

How the values were obtained:
[1] = tested on: human red blood cells (HRBCs); test: Hemolytic assay on human red blood cells; type: cell-based; details: human red blood cells 5% (v/v) in PBS, 37 °C 1 h, OD 540 nm; for HRBC Hemolysis (hemolysis rate at 320 μg/mL): peptide 320 μg/mL (highest dose), PBS = 0%, mean of three independent experiments; for EC50: four-parameter logistic fit of mean of three independent experiments, '-' = hemolytic activity too low to calculate the EC50
Experimental: (§1) Fresh human red blood cells were obtained from healthy donors and collected in a sterile blood collecting vessel covered with sodium citrate (1:9) as the anticoagulating agent. Rat red blood cells were collected from the abdominal aorta in sterile blood-collecting vessels coated with sodium citrate (1:4) after the SD rats were anaesthetized with isoflurane. Then, the cells were washed three times with phosphate-buffered saline via centrifugation (1000× g, 4 °C, 5 min) and prepared in a sterile 96-well polypropylene plate to achieve a final concentration of 5% (v/v). Twofold dilutions of the peptides were prepared in PBS to 100 μL and mixed with an equal volume of HRBCs/RRBCs suspension to final peptide concentrations ranging from 10 to 320 μg/mL. After coincubation at 37 °C for 1 h, the plate was centrifuged (2000× g, 4 °C, 20 min), and 100 μL of supernatant was taken for optical density measurements at 540 nm using a microtiter plate reader (SpectraMax 190). The HRBCs/RRBCs were assayed with PBS (blank) or 1% Triton X-100 (positive control) to represent 0% and 100% hemolysis, respectively. The percent hemolysis was calculated according to the following equation: Hemolysis Rate (%) = 100% × (Amastoparans − Ablank)/(ATriton X-100 − Ablank). Three independent experiments were performed, and the mean hemolysis rate at each dose was used to calculate the EC50 in Sigmaplot software.
(§2) Statistical analysis was performed with GraphPad Prism software (version 5.0, San Diego, CA, USA). A two-tailed Student’s t-test was used to calculate the statistical probability in this study. Differences in the data were considered to be statistically significant when the p value was equal to or less than 0.05. The curve of hemolysis induced by wasp mastoparans was generated in SigmaPlot 12.5 software, and the EC50 was calculated according to the equation (Four Parameter Logistic Curve): y = min + (max − min)/(1 + (x/EC50)^−Hillslope). The heat map of hemolytic activity of mastoparan peptide was analysed in R software which is based on the value of log2(EC50).

[2] = tested on: rat red blood cells (RRBCs); test: Hemolytic assay on rat red blood cells; type: cell-based, SD rats; details: rat red blood cells 5% (v/v) in PBS, 37 °C 1 h, OD 540 nm; for RRBC Hemolysis (hemolysis rate at 320 μg/mL): peptide 320 μg/mL (highest dose), PBS = 0%, mean of three independent experiments; for EC50: four-parameter logistic fit of mean of three independent experiments, '-' = hemolytic activity too low to calculate the EC50
Experimental: as §1, §2

[3] = peptide 10-320 μg/mL twofold dilutions, 1% Triton X-100 = 100%, read-out: RRBC EC50 (hemolytic activity)
[4] = peptide 10-320 μg/mL twofold dilutions, 1% Triton X-100 = 100%, read-out: HRBC EC50 (hemolytic activity)
[5] = Table 2 series, read-out: HRBC EC50 (hemolytic activity), Protopolybia-MPIII and mutants
[6] = Table 2 series, read-out: RRBC EC50 (hemolytic activity), Protopolybia-MPIII and mutants

Compound | HRBC Hemolysis (hemolysis rate at 320 μg/mL) ([1]; 1% Triton X-100 = 100%) [%] | RRBC Hemolysis (hemolysis rate at 320 μg/mL) ([2]; 1% Triton X-100 = 100%) [%] | EC50 [2, 3] [µM] | EC50 [1, 4] | EC50 [1, 5] [µM] | EC50 [2, 6] [µM] | EC50 ([1]; peptide 10-320 μg/mL twofold dilutions, 1% Triton X-100 = 100%, listed as Polybia-MPI, read-out: HRBC EC50 (hemolytic activity)) [µM]
INWKALLDAAKKVL-NH2 [Protonectarina-MP] | 100 | 35 | 326 ± 26.4 | – | – | – | –
INWKAILQRIKKML-NH2 [Agelaia-MPII] | 100 | 97 | 62.1 ± 3.8 | 44.8 ± 10.4 µM | – | – | –
GRILSFIKGLAEHL-NH2 [EMP-OD] | 2 | 49 | 190 ± 32 | – | – | – | –
INLKVFAALVKKFL-NH2 [Mastoparan-T1] | 100 | 87 | 22.7 ± 7.1 | 30.8 ± 1.6 µM | – | – | –
INWKAIIEAAKQAL-NH2 [Protopolybia-MPII] | 13 | 24 | > 400 | > 400 µM | – | – | –
INWLKLGKKVIAIL-NH2 [Protopolybia-MPIII-12] | – | – | – | – | 43.9 ± 3.6 | 55.2 ± 2.2 | –
FDVMGIIKKIASAL-NH2 [EMP-EF] | 100 | 48 | 216.8 ± 1.6 | 125 ± 20.6 µM | – | – | –
CC[C@H](C)[C@H](N)C(=O)N[C@@H](CC(N)=O)C(=O)N[C@@H](CC(C)C)C(=O)N[C@@H](CCCCN)C(=O)N[C@@H](C)C(=O)N[C@@H](CC(C)C)C(=O)N[C@@H](C)C(=O)N[C@@H](C)C(=O)N[C@@H](CC(C)C)C(=O)N[C@@H](C)C(=O)N[C@@H](CCCCN)C(=O)N[C@@H](CCCCN)C(=O)N[C@H](C(=O)N[C@@H](CC(C)C)C(N)=O)[C@@H](C)CC [Mastoparan (L)] | 100 | 41 | 242 ± 2.6 | 82.9 ± 3.8 µM | – | – | –
INWLKLGKKVIDIL-NH2 [Protopolybia-MPIII-7] | – | – | – | – | 37.8 ± 3.7 | 57.5 ± 2.7 | –
INWLKLGKAVIAAL-NH2 [Protopolybia-MPIII-3] | – | – | – | – | 16.8 ± 1 | 21.5 ± 1.2 | –
INWLKLGKAVIDAL-NH2 [Protopolybia-MPIII] | 96 | 93 | 34.6 ± 2.8 | 61.9 ± 8.3 µM | – | 42.8 ± 2.1 | –
INWLKLGKAIIDAL-NH2 [Agelaia-MPI] | 100 | 98 | 7 ± 0.7 | 3.7 ± 0.14 µM | – | – | –
INWHDIAIKNIDAL-NH2 [Polybia-MP V] | 0 | 0 | > 400 | > 400 µM | – | – | –
IDWLKLRVISVIDL-NH2 [Polybia-MP IV] | 0 | 0 | > 400 | > 400 µM | – | – | –
INWLKLGKKVIAAL-NH2 [Protopolybia-MPIII-6] | – | – | – | – | 110 ± 2.5 | 108 ± 3.2 | –
INWLKLGKKMMSAL-NH2 [MP] | 87 | 10 | – | 124 ± 15.3 µM | – | – | –
INWLKLGKAVIAIL-NH2 [Protopolybia-MPIII-10] | – | – | – | – | 11.3 ± 1.2 | 11.7 ± 1 | –
FDLLGLVKKVASAL-NH2 [EpVP2a] | 79 | 41 | 239 ± 7.6 | 152 ± 6.3 µM | – | – | –
INWAKLGKLALQAL-NH2 [Ropalidia-MP] | 100 | 94 | 122 ± 4.3 | 42.5 ± 1.7 µM | – | – | –
INLKAIAALVKKVL-NH2 [HR1] | 56 | 39 | 253 ± 13 | 198 ± 8.9 µM | – | – | –
FDLLGLVKSVVSAL-NH2 [EpVP2b] | 100 | 100 | 50.6 ± 2.6 | 34.1 ± 3.5 µM | – | – | –
INLKVFAALVKKLL-NH2 [Mastoparan-T2] | 100 | 100 | 21.1 ± 2.4 | 11.8 ± 3.1 µM | – | – | –

Compound | HRBC Hemolysis (hemolysis rate at 320 μg/mL) ([1]; 1% Triton X-100 = 100%) [%] | RRBC Hemolysis (hemolysis rate at 320 μg/mL) ([2]; 1% Triton X-100 = 100%) [%] | EC50 [2, 3] [µM] | EC50 [1, 4] | EC50 [1, 5] [µM] | EC50 [2, 6] [µM] | EC50 ([1]; peptide 10-320 μg/mL twofold dilutions, 1% Triton X-100 = 100%, listed as Polybia-MPI, read-out: HRBC EC50 (hemolytic activity)) [µM]
INWKKIKSLIKAAMS-NH2 [Mastoparan-V2] | 15 | 52 | 182 ± 3.6 | – | – | – | –
INMKAVAAVAKKPL-NH2 [MP-VB2] | 0 | 0 | – | – | – | – | –
INWLKLGKQILGAL-NH2 [Pm-R3] | 100 | 100 | 73.5 ± 5.1 | 32.3 ± 1.7 µM | – | – | –
INLKALAALVKKVL-NH2 [Mastoparan-II] | 78 | 90 | 147 ± 3.4 | 134.6 ± 1.2 µM | – | – | –
INLLKIAKGIIKSL-NH2 [EMP-AF] | 100 | 100 | 122 ± 13.1 | 111 ± 9.8 µM | – | – | –
INWLKLGKKVIDAL-NH2 [Protopolybia-MPIII-1] | – | – | – | – | 176.4 ± 1 | 158 ± 2.3 | –
VDWKKIGQHILSVL-NH2 [Mastoparan-J] | 100 | 100 | 60.1 ± 1.3 | 69.5 ± 3.2 µM | – | – | –
LNLKGLFKKVASLLT [Eumenitin-F] | 67 | 44 | 207.1 ± 2 | 157 ± 2.6 µM | – | – | –
IDWLKLGKMVMDVL-NH2 [Polybia-MP III] | 79 | 100 | 74.8 ± 10.4 | 38.5 ± 5.9 µM | – | – | –
INLFGFAALVKKFL-NH2 [Mastoparan-T4] | 100 | 100 | 17.6 ± 2.4 | 28.5 ± 2.3 µM | – | – | –
INWLKLGKAVIDIL-NH2 [Protopolybia-MPIII-4] | – | – | – | – | 11.3 ± 6.2 | 19.8 ± 1.2 | –
INWLKLGKAVSAAL-NH2 [Protopolybia-MPIII-8] | – | – | – | – | 308 ± 6.2 | 444 ± 2.1 | –
INWLKLGKAVSDAL-NH2 [Protopolybia-MPIII-2] | – | – | – | – | 673 ± 189 | 639.5 ± 1.6 | –
INLKAIAALAKKLF-NH2 [Mastoparan AF] | 47 | 92 | 107 ± 15.7 | 227 ± 3.1 µM | – | – | –
INWLKLGKAVSAIL-NH2 [Protopolybia-MPIII-11] | – | – | – | – | 141 ± 2.4 | 134 ± 2.2 | –
INWKGIAAMAKKLL-NH2 [Mastoparan-X(V)] | 29 | 70 | 156 ± 2.4 | ≤ 400 µM and 349 µM | – | – | –
INWKKIFQKVKNLV-NH2 [PDD-A] | 30 | 27 | – | 354 ± 44.8 µM | – | – | –
INLRGFAALVKKFL-NH2 [Mastoparan-T3] | 100 | 100 | 51.6 ± 2.1 | 112 ± 8 µM | – | – | –
IDWKKLLDAAKQIL-NH2 [Polybia-MP I] | 56 | 100 | 51.4 ± 2.2 | 177 ± 7 µM | – | – | ≤ 400
INWKKIASIGKEVLKAL-NH2 [PMM2] | 100 | 100 | 80.9 ± 6.4 | 42.6 ± 2.5 µM | – | – | –
LNFKALAALAKKIL-NH2 [Pm-R2] | 66 | 34 | 250 ± 9.9 | 166 ± 8 µM | – | – | –
